# Data taken from PubChem BioAssay AID2060889 (Molecular Pharmacology Branch, DTP, NCI, 2025).
# pIC50: −log10 of the molar value.
# System: LG0567-F671-PDC complex spheroids viability
# Assay: Anticancer human tumor LG0567-F671-PDC patient-derived lung adenocarcinoma cell line growth inhibition [RAS]
# Settings: for pIC50: curve of first compound; for viability, T/C: stronger effect = lower value
# Procedure, shortened: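 Agents were tested in combination matrices in half-log decrements from a top concentration at or near clinical Cmax (10 microM if undetermined). Targets were multi-cell spheroids of tumour lines plus HUVEC and MSC stromal cells.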
# [1] = second compound 0.0316 µM, first compound 0.0316 µM
# [2] = second compound 0.0316 µM, first compound 0.1 µM
# [3] = second compound 0.0316 µM, first compound 0.316 µM
# [4] = second compound 0.0316 µM, first compound 1 µM
# [5] = second compound 0.0316 µM, first compound 3.16 µM
# [6] = second compound 0.0316 µM, first compound 10 µM
# [7] = second compound 0.1 µM, first compound 0.0316 µM
# [8] = second compound 0.1 µM, first compound 0.1 µM
# [9] = second compound 0.1 µM, first compound 0.316 µM
# [10] = second compound 0.1 µM, first compound 1 µM
# [11] = second compound 0.1 µM, first compound 3.16 µM
# [12] = second compound 0.1 µM, first compound 10 µM
# [13] = second compound 0.316 µM, first compound 0.0316 µM
# [14] = second compound 0.316 µM, first compound 0.1 µM
# [15] = second compound 0.316 µM, first compound 0.316 µM
# [16] = second compound 0.316 µM, first compound 1 µM
# [17] = second compound 0.316 µM, first compound 3.16 µM
# [18] = second compound 0.316 µM, first compound 10 µM
# [19] = second compound 1 µM, first compound 0.0316 µM
# [20] = second compound 1 µM, first compound 0.1 µM
# [21] = second compound 1 µM, first compound 0.316 µM
# [22] = second compound 1 µM, first compound 1 µM
# [23] = second compound 1 µM, first compound 3.16 µM
# [24] = second compound 1 µM, first compound 10 µM
# [25] = second compound 3.16 µM, first compound 0.0316 µM
# [26] = second compound 3.16 µM, first compound 0.1 µM
# [27] = second compound 3.16 µM, first compound 0.316 µM
# [28] = second compound 3.16 µM, first compound 1 µM
# [29] = second compound 3.16 µM, first compound 3.16 µM
# [30] = second compound 3.16 µM, first compound 10 µM
# [31] = second compound 10 µM, first compound 0.0316 µM
# [32] = second compound 10 µM, first compound 0.1 µM
# [33] = second compound 10 µM, first compound 0.316 µM
# [34] = second compound 10 µM, first compound 1 µM
# [35] = second compound 10 µM, first compound 3.16 µM
# [36] = second compound 10 µM, first compound 10 µM
# 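Note: spheroids exposed to compound for seven days before readout.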
# 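Throughout, for pIC50: luminescence signal used as a proxy for viable cells.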
smiles,measurement,setting,value
Cc1nc(N2CCC3(CC2)COC(C)C3N)c(CO)nc1Sc1ccnc(N)c1Cl (stereo unspecified) + C#Cc1c(F)ccc2cc(O)cc(-c3ncc4c(N5CC6CCC(C5)N6)nc(OCC56CCCN5CC(F)C6)nc4c3F)c12,pIC50,second compound 0.0316 µM,7.18
same,pIC50,second compound 0.1 µM,> 7.50
same,pIC50,second compound 0.316 µM,> 7.50
same,pIC50,second compound 1 µM,> 7.50
same,pIC50,second compound 3.16 µM,> 7.50
same,pIC50,second compound 10 µM,> 7.50
same,"viability, T/C",[1],63.3%
same,"viability, T/C",[2],43.5%
same,"viability, T/C",[3],26.2%
same,"viability, T/C",[4],19.9%
same,"viability, T/C",[5],15.2%
same,"viability, T/C",[6],13.1%
same,"viability, T/C",[7],46.1%
same,"viability, T/C",[8],31.3%
same,"viability, T/C",[9],21.6%
same,"viability, T/C",[10],15.5%
same,"viability, T/C",[11],12.7%
same,"viability, T/C",[12],9.84%
same,"viability, T/C",[13],35.3%
same,"viability, T/C",[14],20.9%
same,"viability, T/C",[15],18.1%
same,"viability, T/C",[16],10.4%
same,"viability, T/C",[17],8.05%
same,"viability, T/C",[18],7.7%
same,"viability, T/C",[19],21%
same,"viability, T/C",[20],16.2%
same,"viability, T/C",[21],10.6%
same,"viability, T/C",[22],10.3%
same,"viability, T/C",[23],4.69%
same,"viability, T/C",[24],3.85%
same,"viability, T/C",[25],12.1%
same,"viability, T/C",[26],8.68%
same,"viability, T/C",[27],5.69%
same,"viability, T/C",[28],4.95%
same,"viability, T/C",[29],3.57%
same,"viability, T/C",[30],2.94%
same,"viability, T/C",[31],7.2%
same,"viability, T/C",[32],6.13%
same,"viability, T/C",[33],3.88%
same,"viability, T/C",[34],2.23%
same,"viability, T/C",[35],2.98%
same,"viability, T/C",[36],1.91%
NC1c2ccccc2OC12CCN(c1cnc3c(N4CCCc5ncccc54)n[nH]c3n1)CC2 (stereo unspecified) + C#Cc1c(F)ccc2cc(O)cc(-c3ncc4c(N5CC6CCC(C5)N6)nc(OCC56CCCN5CC(F)C6)nc4c3F)c12,pIC50,second compound 0.0316 µM,> 7.50
same,pIC50,second compound 0.1 µM,> 7.50
same,pIC50,second compound 0.316 µM,> 7.50
same,pIC50,second compound 1 µM,> 7.50
same,pIC50,second compound 3.16 µM,> 7.50
same,pIC50,second compound 10 µM,> 7.50
same,"viability, T/C",[1],26.7%
same,"viability, T/C",[2],19.3%
same,"viability, T/C",[3],14.6%
same,"viability, T/C",[4],13.3%
same,"viability, T/C",[5],10.4%
same,"viability, T/C",[6],10.1%
same,"viability, T/C",[7],21%
same,"viability, T/C",[8],14.3%
same,"viability, T/C",[9],10.1%
same,"viability, T/C",[10],8.88%
same,"viability, T/C",[11],7.88%
same,"viability, T/C",[12],6.09%
same,"viability, T/C",[13],13.9%
same,"viability, T/C",[14],9.75%
same,"viability, T/C",[15],8.65%
same,"viability, T/C",[16],4.96%
same,"viability, T/C",[17],3.75%
same,"viability, T/C",[18],2.92%
same,"viability, T/C",[19],9.24%
same,"viability, T/C",[20],6.71%
same,"viability, T/C",[21],4%
same,"viability, T/C",[22],3.17%
same,"viability, T/C",[23],2.53%
same,"viability, T/C",[24],2.43%
same,"viability, T/C",[25],6.2%
same,"viability, T/C",[26],3.13%
same,"viability, T/C",[27],2.43%
same,"viability, T/C",[28],1.79%
same,"viability, T/C",[29],2.13%
same,"viability, T/C",[30],1.85%
same,"viability, T/C",[31],3.6%
same,"viability, T/C",[32],2.14%
same,"viability, T/C",[33],1.74%
same,"viability, T/C",[34],1.65%
same,"viability, T/C",[35],1.73%
same,"viability, T/C",[36],1.28%
Nc1ccn(C2OC(CO)C(O)C2(F)F)c(=O)n1 (stereo unspecified) + C#Cc1c(F)ccc2cc(O)cc(-c3ncc4c(N5CC6CCC(C5)N6)nc(OCC56CCCN5CC(F)C6)nc4c3F)c12,pIC50,second compound 0.0316 µM,< 6.00
same,pIC50,second compound 0.1 µM,< 6.00
same,pIC50,second compound 0.316 µM,> 8.50
same,pIC50,second compound 1 µM,> 8.50
same,pIC50,second compound 3.16 µM,> 8.50
same,pIC50,second compound 10 µM,> 8.50
same,"viability, T/C","second compound 0.0316 µM, first compound 0.00316 µM",76.6%
same,"viability, T/C","second compound 0.0316 µM, first compound 0.01 µM",74.5%
same,"viability, T/C",[1],60.8%
same,"viability, T/C",[2],59.8%
same,"viability, T/C",[3],63.2%
same,"viability, T/C",[4],59.5%
same,"viability, T/C","second compound 0.1 µM, first compound 0.00316 µM",70.4%
same,"viability, T/C","second compound 0.1 µM, first compound 0.01 µM",71.7%
same,"viability, T/C",[7],52.1%
same,"viability, T/C",[8],61.5%
same,"viability, T/C",[9],59.8%
same,"viability, T/C",[10],59.2%
same,"viability, T/C","second compound 0.316 µM, first compound 0.00316 µM",46.8%
same,"viability, T/C","second compound 0.316 µM, first compound 0.01 µM",46.7%
same,"viability, T/C",[13],47.6%
same,"viability, T/C",[14],46.5%
same,"viability, T/C",[15],49.4%
same,"viability, T/C",[16],44.8%
same,"viability, T/C","second compound 1 µM, first compound 0.00316 µM",26.7%
same,"viability, T/C","second compound 1 µM, first compound 0.01 µM",27.3%
same,"viability, T/C",[19],25.5%
same,"viability, T/C",[20],26.9%
same,"viability, T/C",[21],27.9%
same,"viability, T/C",[22],27.5%
same,"viability, T/C","second compound 3.16 µM, first compound 0.00316 µM",16.1%
same,"viability, T/C","second compound 3.16 µM, first compound 0.01 µM",16.4%
same,"viability, T/C",[25],16.8%
same,"viability, T/C",[26],16%
same,"viability, T/C",[27],16.4%
same,"viability, T/C",[28],14.8%
same,"viability, T/C","second compound 10 µM, first compound 0.00316 µM",8.86%
same,"viability, T/C","second compound 10 µM, first compound 0.01 µM",9.45%
same,"viability, T/C",[31],9%
same,"viability, T/C",[32],8.04%
same,"viability, T/C",[33],8.48%
same,"viability, T/C",[34],9.14%
